Counter-ions that a name gives are not always drawn. Like-named read-outs stand apart in the source and are kept apart here.
How the values were obtained:
[1] = target: T1, recombinant human Lp-PLA2 (Homo sapiens, UniProt Q13093); assay: Recombinant human Lp-PLA2 assay (rhLp-PLA2, PED6 assay); type: biochemical
T1 sequence (Q13093 22-441): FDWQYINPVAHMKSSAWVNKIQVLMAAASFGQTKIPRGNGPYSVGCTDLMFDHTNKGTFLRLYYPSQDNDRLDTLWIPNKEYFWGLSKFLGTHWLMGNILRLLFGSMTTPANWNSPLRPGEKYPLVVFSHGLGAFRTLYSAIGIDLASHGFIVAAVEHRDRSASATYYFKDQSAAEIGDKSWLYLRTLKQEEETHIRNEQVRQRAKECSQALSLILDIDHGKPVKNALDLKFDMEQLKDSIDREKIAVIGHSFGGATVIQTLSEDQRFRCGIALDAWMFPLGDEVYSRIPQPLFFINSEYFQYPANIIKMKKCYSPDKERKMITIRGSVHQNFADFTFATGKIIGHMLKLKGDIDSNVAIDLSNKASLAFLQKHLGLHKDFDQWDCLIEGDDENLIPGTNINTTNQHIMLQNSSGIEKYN
From the text: (1) Recombinant Human Lp-PLA2 Assay (rhLp-PLA2) (Also Referred to as “PED6” Assay)
N-((6-(2,4-dinitrophenyl)amino)-hexanoyl)-2-(4,4-difluoro-5,7-dimethyl-4-bora-3a,4a-diaza-s-indacene-3-pentanoyl)-1-hexadecanoyl-sn-glycero-3-phosphoethanolamine, triethylammonium salt (PED6) is a commercially available fluorescently-labelled phospholipid, which is commercially available from Molecular Probes. There is a quenching […] position and a Bodipy fluorescein (FL) group in the sn2 position.
The PED6 assay was run as an unquenched 10 μL assay. Compounds source plate was prepared by making 1:3 (by volume) serial dilution of the compounds into pure DMSO on 384-well microplate. […] 5 μL of recombinant human Lp-PLA2 enzyme (2 nM rhLp-PLA2 in assay buffer of 50 mM HEPES, pH7.4, 150 mM NaCl, 1 mM CHAPS) was added to each well of the plate with compounds. Plates were centrifuged for 10 sec at 500 rpm. […] Plates were centrifuged for 10 sec at 500 rpm. Plate was covered to protect from light and incubated for 20 min at room temperature. […] PIC50 data, curve and QC analysis was conducted by using XL fit module in Excel.

[2] = target: T2, Lp-PLA2 from plasma (pooled human plasma) (Homo sapiens, UniProt Q13093); assay: Lp-PLA2 human plasma assay (Thio-PAF assay); type: biochemical; details: text thresholds, read-out: pIC50 values in the thio-PAF assay (converted)
T2 construct: 8 μL pooled human plasma; from tissue; host or cells: pooled human plasma
T2 sequence (Q13093 22-441): T1 sequence (Q13093 22-441)
From the text: (3) Lipoprotein-Associated Phospholipase A2 (Lp-PLA2) Human Plasma Assay (Also Referred to as “Thio-PAF Assay”)
The human plasma assay utilizes a thioester analog of PAF (phosphatidylcholine), where hydrolysis yields to the formation of a phospholipid containing a free thiol group. The amount of thiol is quantitated continuously by reacting with CPM (7-diethylamino-3-(4′-maleimidylphenyl)-4-methylcoumarin), a maleimide which increases in fluoresence after Michael addition of thiols. This assay may detect the activity of Lp-PLA2 from plasma, as determined by specific inhibition by Lp-PLA2 inhibitors.
The thio-PAF assay was run as a quenched 15 μL assay. Compounds source plate was prepared by making 1:3 (by volume) serial dilution of the compounds into pure DMSO on 384-well microplate. 0.01 μL of compounds on compound source plate were transferred to 384 well Greiner 784076 (black) low-volume plates by ECHO liquid dispenser. 8 μL pooled human plasma, which was previously aliquoted and frozen, was added. Plates were centrifuged for 10 sec at 500 rpm. After 30 minutes preincubation, 2 μL of substrate (2.5 mM thio-PAF, 3.2 mM NEM (N-ethylmaleimide) [made fresh daily in DMSO], and 32 μM CPM [from a DMSO stock] in assay buffer of 50 mM HEPES, pH7.4, 150 mM NaCl, 1 mM CHAPS was added to 384 well Greiner 784076 (black) low-volume plates by BRAVO liquid handling station. Plates were centrifuged for 10 sec at 500 rpm. Plate was covered to protect from light and incubated for 2 min at room temperature. Reaction was quenched with 5 μL of 5% aqueous trifluoroacetic acid (TFA). Plates were covered to protect from light and incubated for 40 min at room temperature. Plates were read at ex: 380/em: 485 using-Envision microplate reader. PIC50 data, curve and QC analysis was conducted by using XLFit module in Excel.

[3] = text thresholds, upper limit for pIC50 in this assay is 9.3, read-out: pIC50 values in the PED6 assay (converted)
[4] = upper limit for pIC50 obtained in this PED6 assay is 9.3, read-out: rhLp-PLA2 (PED6 assay) (pIC50) (converted)

Structure (SMILES) | IC50 [1, 3] [nM] | IC50 [2] [nM] | IC50 [1, 4] [nM]
Cn1cc(Cc2cn(C)c(SCc3ccc(Oc4cc(Cl)ccn4)cc3)nc2=O)cn1 [E93, 2-[({4-[(4-chloro-2-pyridinyl)oxy]phenyl}methyl)thio]-1-methyl-5-[(1-methyl-1H-pyrazol-4-yl)methyl]-4(1H)-pyrimidinone] | ≤ 1 | ≤ 100 | –
Cn1cc(Cc2cn(C)c(SCc3ccc(Oc4cccc(C(F)(F)F)c4)c(C#N)c3)nc2=O)cn1 [E95, 5-(((1-methyl-5-((1-methyl-1H-pyrazol-4-yl)methyl)-4-oxo-1,4-dihydropyrimidin-2-yl)thio)methyl)-2-(3-(trifluoromethyl)phenoxy)benzonitrile, trifluoroacetic acid salt] | ≤ 1 | ≤ 100 | –
Cn1cc(Cc2cncnc2)c(=O)nc1SCc1ccc(Oc2cccc(C(F)(F)F)c2)c(C#N)c1 [E97, 5-({[1-methyl-4-oxo-5-(5-pyrimidinylmethyl)-1,4-dihydro-2-pyrimidinyl]thio}methyl)-2-{[3-(trifluoromethyl)phenyl]oxy}benzonitrile] | ≤ 1 | ≤ 100 | –
CCc1cn(CC)c(OCCc2ccc(Oc3ccc(Cl)c(C(F)(F)F)c3)cc2)nc1=O [E130, 2-{[2-(4-{[4-chloro-3-(trifluoromethyl)phenyl]oxy}phenyl)ethyl]oxy}-1,5-diethyl-4(1H)-pyrimidinone] | – | ≤ 1000 | 2.51
Cc1noc(Cc2c[nH]c(OCCc3ccc(Oc4ccc(Cl)c(C(F)(F)F)c4)cc3)nc2=O)n1 [E133, 2-{[2-(4-{[4-chloro-3-(trifluoromethyl)phenyl]oxy}phenyl)ethyl]oxy}-5-[(3-methyl-1,2,4-oxadiazol-5-yl)methyl]-4(1H)-pyrimidinone] | ≤ 10 | ≤ 1000 | 3.16
Cc1nnc(Cc2c[nH]c(OCCc3ccc(Oc4ccc(Cl)c(C(F)(F)F)c4)cc3)nc2=O)o1 [E134, 2-{[2-(4-{[4-chloro-3-(trifluoromethyl)phenyl]oxy}phenyl)ethyl]oxy}-5-[(5-methyl-1,3,4-oxadiazol-2-yl)methyl]-4(1H)-pyrimidinone] | ≤ 10 | ≤ 100 | 2.51
Cn1cc(Cc2cncnc2)c(=O)nc1OCCc1ccc(Oc2ccc(Cl)c(C(F)(F)F)c2)c(F)c1 [E141, 2-{[2-(4-{[4-chloro-3-(trifluoromethyl)phenyl]oxy}-3-fluorophenyl)ethyl]oxy}-1-methyl-5-(5-pyrimidinylmethyl)-4(1H)-pyrimidinone] | ≤ 1 | ≤ 100 | –
COc1ncc(Cc2c[nH]c(OCCc3ccc(Oc4cnc(C(F)(F)F)nc4)cc3)nc2=O)cn1 [E143, 5-{[2-(methyloxy)-5-pyrimidinyl]methyl}-2-{[2-(4-{[2-(trifluoromethyl)-5-pyrimidinyl]oxy}phenyl)ethyl]oxy}-4(1H)-pyrimidinone] | ≤ 10 | ≤ 1000 | –
Cc1ccc(Oc2ccc(CCOc3nc(=O)c(Cc4cncnc4)c[nH]3)cc2)cc1Cl [E150, 2-[(2-{4-[(3-chloro-4-methylphenyl)oxy]phenyl}ethyl)oxy]-5-[pyrimidin-5-ylmethyl]-4(1H)-pyrimidinone] | ≤ 1 | ≤ 100 | –
COc1ncc(Cc2c[nH]c(OCCc3ccc(Oc4ccc(C)c(Cl)c4)cc3)nc2=O)cn1 [E151, 2-[(2-{4-[(3-chloro-4-methylphenyl)oxy]phenyl}ethyl)oxy]-5-{[2-(methyloxy)-5-pyrimidinyl]methyl}-4(1H)-pyrimidinone] | ≤ 1 | ≤ 100 | –
COc1ncc(Cc2c[nH]c(OCCc3ccc(Oc4ccc(Cl)c(C(F)(F)F)n4)cc3)nc2=O)cn1 [E161, 2-(4-((5-chloro-6-(trifluoromethyl)pyridin-2-yl)oxy)phenethoxy)-5-((2-methoxypyrimidin-5-yl)methyl)pyrimidin-4(1H)-one] | ≤ 10 | ≤ 1000 | –
Cn1cc(Cc2c[nH]c(OCCc3ccc(Oc4cc(Cl)cc(C(F)(F)F)c4)cc3)nc2=O)cn1 [E162, 2-{[2-(4-{[3-chloro-5-(trifluoromethyl)phenyl]oxy}phenyl)ethyl]oxy}-5-[(1-methyl-1H-pyrazol-4-yl)methyl]-4(1H)-pyrimidinone] | ≤ 10 | ≤ 100 | –
COc1ncc(Cc2c[nH]c(OCCc3ccc(Oc4ccc(Cl)c(C(F)(F)F)c4)c(F)c3)nc2=O)cn1 [E172, 2-{[2-(4-{[4-chloro-3-(trifluoromethyl)phenyl]oxy}-3-fluorophenyl)ethyl]oxy}-5-{[2-(methyloxy)-5-pyrimidinyl]methyl}-4(1H)-pyrimidinone] | ≤ 1 | ≤ 100 | –
O=c1nc(NCCc2ccc(Oc3ccc(F)cc3)cc2)[nH]cc1Cc1cncnc1 [E188, 2-{2-[4-(4-Fluoro-phenoxy)-phenyl]-ethylamino}-5-pyrimidin-5-ylmethyl-1H-pyrimidin-4-one] | ≤ 10 | ≤ 100 | –
Cc1ncc(Cc2c[nH]c(NCCc3ccc(Oc4ccc(Cl)c(C(F)(F)F)c4)cc3)nc2=O)cn1 [E195, 2-{2-[4-(4-Chloro-3-trifluoromethyl-phenoxy)-phenyl]-ethylamino}-5-(2-methyl-pyrimidin-5-ylmethyl)-1H-pyrimidin-4-one] | ≤ 10 | ≤ 100 | –
CN(CCc1ccc(Oc2ccc(Cl)c(C(F)(F)F)c2)cc1)c1nc(=O)c(Cc2cncnc2)cn1C [E196, 2-({2-[4-(4-Chloro-3-trifluoromethyl-phenoxy)-phenyl]-ethyl}-methyl-amino)-1-methyl-5-pyrimidin-5-ylmethyl-1H-pyrimidin-4-one] | ≤ 10 | ≤ 1000 | –
COc1ncc(Cc2c[nH]c(NCCc3ccc(Oc4ccc(C(F)(F)F)cn4)c(C#N)c3)nc2=O)cn1 [E202, 5-{2-[5-(2-methoxy-pyrimidin-5-ylmethyl)-4-oxo-1,4-dihydro-pyrimidin-2-yl]-amino}-ethyl-2-(5-trifluoromethyl-pyridin-2-yloxy)benzonitrile] | ≤ 10 | ≤ 100 | 7.94
O=c1nc(NCCc2ccc(Oc3ccc(C(F)(F)F)cc3)cc2)[nH]cc1Cc1cncnc1 [E204] | ≤ 10 | ≤ 100 | –
N#Cc1cc(CCNc2nc(=O)c(Cc3cncnc3)c[nH]2)ccc1Oc1ccc(C(F)(F)F)cn1 [E205, 5-[2-(4-oxo-5-pyrimidin-5-ylmethyl-1,4-dihydro-pyrimidin-2-ylamino)-ethyl]-2-(5-trifluoromethyl-pyridin-2-yloxy)benzonitrile] | ≤ 10 | ≤ 1000 | –
COc1ncc(Cc2c[nH]c(NCCc3ccc(Oc4ccc(C(F)(F)F)c(Cl)c4)cc3)nc2=O)cn1 [E206, 2-{2-[4-(3-chloro-4-trifluoromethyl-phenoxy)-phenyl]ethylamino}-5-(2-methoxy-pyrimidin-5-ylmethyl)-1H-pyrimidin-4-one] | ≤ 10 | ≤ 1000 | –
Cc1ccc(Cc2c[nH]c(NCCc3ccc(Oc4ccc(Cl)c(C(F)(F)F)c4)cc3)nc2=O)cn1 [E210, 2-{2-[4-(4-Chloro-3-trifluoromethyl-phenoxy)-phenyl]-ethylamino}-5-(6-methyl-pyridin-3-ylmethyl)-1H-pyrimidin-4-one] | ≤ 10 | ≤ 100 | –
